According to US20240115557A1, “INHIBITORS OF RNA-GUIDED NUCLEASES AND USES THEREOF” (The Brigham and Women's Hospital, Inc., priority 2022, published 2024):

Assays:
SpCas9 expression = experiment: Immunoblotting of SpCas9 expression; format: cell-based; conditions: HEK293T and U2OS.eGFP.PEST, 24 h
Description: Approximately 500,000 U20S.eGFP.PEST cells were nucleofected as described above with 500 ng of SpCas9 plasmid. Then, cells were plated in a 12-well plate with indicated amount of compound, and incubated for 24 h. HEK293T cells were transfected with 500 ng SpCas9 plasmid as described above, and incubated with the compound for 24 h in a 24-well plate. Cells were harvested and lysed by RIPA buffer containing Protease Inhibitor Cocktail (Roche). Lysate was cleared by centrifugation at 20,000 g in 4° C., and the supernatant was taken to measure the protein concentration using BCA assay. Approximately […] of the total protein was used for immunoblotting. Rabbit anti-SpCas9 (Abcam #89380, 1:1,000 dilution) and mouse anti-a-tubulin (CST #3873, 1:2,000 dilution) were used as primary antibodies. IRDye 680RD Donkey anti-Rabbit IgG (LI-COR #925-68073, 1:10,000 dilution) and IRDye 800CW Donkey anti-Mouse IgG (LI-COR #925-32212, 1:10,000 dilution) were used as secondary antibodies.

U2OS.eGFP.PEST cells [1] = experiment: eGFP fluorescence counter assay in absence of SpCas9:gRNA; format: cell-based, human
Description: FIG. 73A-73E Counter assays to validate BRD7586 in cells FIG. 73A,B Immunoblotting analysis of SpCas9 expression in (A) HEK293T cells or (B) U20S.eGFP.PEST cells transfected with SpCas9 plasmid were incubated with BRD7586 for 24 h (n=2 or 3 independent experiments). p>0.05 for BRD7586 at […] compared to DMSO in U20S.eGFP.PEST cells (paired t test, two-tailed) FIG. 73C Changes in the fluorescence intensity in the presence of BRD7586 in U20S.eGFP.PEST. Cells were treated with the compound for 24 h, and the fluorescence was measured to calculate the fraction of GFP-positive populations. Means from 3 independent experiments are shown. […] Error bars represent SD from 3 independent experiments. For SpCas9, p≤0.01 for BRD7586 at 15 μM compared to DMSO. For LbCas12a, p>0.05 for BRD7586 at 15 μM compared to DMSO in all experiments (unpaired t test, two-tailed).

SpCas9 [2] = molecular target: T1, SpCas9 (Streptococcus pyogenes serotype M1, UniProt Q99ZW2); experiment: Targeted deep sequencing of indels (eGFP, EMX1, FANCF, VEGFA); format: cell-based
Description: U2OS.eGFP.PEST cells were nucleofected as described above for the eGFP disruption assay, plated in a 24-well plate at the density of 150,000 cells per well, and incubated with BRD7586 for 24 h. Then, the genomic DNA was extracted using DNeasy Blood & Tissue Kit (Qiagen). HEK293T cells were plated in a 24-well plate at the density of 100,000 cells per well. The next day, cells were transfected with 500 ng of SpCas9 plasmid and 250 ng of EMX1-, VEGFA-, or FANCF-targeting gRNA plasmid using Lipofectamine 3000 (Invitrogen). Indicated amount of compound was added at the time of transfection, cells were incubated for 24 h or 48 h, and genomic DNA was extracted. Next-generation sequencing (NGS) samples were prepared using a two-step PCR protocol. NGS libraries were quantified using KAPA Library Quantification Kit (Roche) and diluted to 4 nM. Sequencing of the pooled library was performed using MiSeq Reagent Kit v2 (Illumina). The percentage of indel in the demultiplexed sequence files was analyzed using the CRISPResso2 software from the Pinello Lab.^49

SpCas9 [3] = molecular target: T1, SpCas9; experiment: Strand displacement assay (SDA) / cumulative activity assay (CAA), SpCas9 primary screen; format: biochemical; conditions: result in words
Procedure, shortened: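 SpCas9:gRNA RNP in 20 mM Tris-HCl pH 7.5, 100 mM KCl, 5 mM MgCl2 was used at 10 nM (2× stock) with Alexa Fluor 647-labelled substrate and excess quencher strand (1 nM and 5 nM, 2× stocks). Fluorescence was read after 2.5 h at 37 °C, where cleavage lets the quencher strand anneal.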

U2OS.eGFP.PEST cells [4] = experiment: CellTiter-Glo cell viability assay, U2OS.eGFP.PEST; format: cell-based, human; conditions: 24 h
Description: HEK293T cells or U2OS.eGFP.PEST cells were plated in a 96-well plate at the density of 30,000 cells per well or 20,000 cells per well, respectively. The next day, cells were treated with indicated amount of compounds for 24 h. Then, cellular ATP levels were measured using CellTiter-Glo Luminescent Cell Viability Assay (Promega) with an EnVision Multilabel Plate Reader (PerkinElmer) at the integration time of 0.5 s per well.

T1 sequence (Q99ZW2 whole entry): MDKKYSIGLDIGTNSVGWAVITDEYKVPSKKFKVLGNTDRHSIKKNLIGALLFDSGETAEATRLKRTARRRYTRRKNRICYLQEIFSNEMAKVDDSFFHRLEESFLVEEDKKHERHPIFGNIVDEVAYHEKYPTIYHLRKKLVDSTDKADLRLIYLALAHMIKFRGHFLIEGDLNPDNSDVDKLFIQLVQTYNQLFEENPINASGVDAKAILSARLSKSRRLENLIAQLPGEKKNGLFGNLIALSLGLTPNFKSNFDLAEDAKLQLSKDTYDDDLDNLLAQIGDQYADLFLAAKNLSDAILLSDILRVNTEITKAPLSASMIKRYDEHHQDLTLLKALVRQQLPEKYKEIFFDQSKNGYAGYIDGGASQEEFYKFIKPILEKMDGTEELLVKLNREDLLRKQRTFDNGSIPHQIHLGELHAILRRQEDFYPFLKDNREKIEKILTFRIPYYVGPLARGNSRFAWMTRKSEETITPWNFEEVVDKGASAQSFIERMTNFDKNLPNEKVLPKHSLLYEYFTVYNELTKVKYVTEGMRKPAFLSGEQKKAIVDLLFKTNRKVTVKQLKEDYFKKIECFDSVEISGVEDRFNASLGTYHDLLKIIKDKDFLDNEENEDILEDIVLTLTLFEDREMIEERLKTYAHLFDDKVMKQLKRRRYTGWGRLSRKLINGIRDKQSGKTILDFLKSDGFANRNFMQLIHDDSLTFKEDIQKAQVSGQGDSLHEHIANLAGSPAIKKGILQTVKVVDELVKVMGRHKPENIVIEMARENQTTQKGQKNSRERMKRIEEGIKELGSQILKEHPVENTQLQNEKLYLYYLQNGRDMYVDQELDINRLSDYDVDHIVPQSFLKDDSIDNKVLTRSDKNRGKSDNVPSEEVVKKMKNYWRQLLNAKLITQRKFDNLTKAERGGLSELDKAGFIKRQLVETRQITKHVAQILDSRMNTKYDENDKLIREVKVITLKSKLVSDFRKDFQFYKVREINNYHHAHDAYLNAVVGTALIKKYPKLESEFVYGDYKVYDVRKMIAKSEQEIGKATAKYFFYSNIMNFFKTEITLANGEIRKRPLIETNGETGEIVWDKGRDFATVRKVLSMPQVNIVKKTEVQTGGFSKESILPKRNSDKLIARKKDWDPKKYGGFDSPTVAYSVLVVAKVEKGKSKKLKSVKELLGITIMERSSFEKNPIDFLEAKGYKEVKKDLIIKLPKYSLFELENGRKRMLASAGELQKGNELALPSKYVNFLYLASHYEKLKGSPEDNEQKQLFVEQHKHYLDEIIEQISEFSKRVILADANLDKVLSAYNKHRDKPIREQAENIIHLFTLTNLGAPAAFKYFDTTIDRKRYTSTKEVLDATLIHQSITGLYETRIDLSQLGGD

SMILES: O=C(CCS(=O)(=O)c1ccc(Cl)cc1)Nc1nc(-c2ccncc2)cs1 [BRD7586]
- Effect on SpCas9 expression (SpCas9 expression): without altering its expression
- Effect on eGFP expression in the absence of SpCas9:gRNA (U2OS.eGFP.PEST cells [1]): without affecting the eGFP expression
- Specificity of SpCas9 (on-target versus off-target ratio) (SpCas9 [2]; HEK293T, EMX1, FANCF or VEGFA, 48 h): enhanced the specificity of SpCas9
- Inhibition of indel activity by next-generation sequencing (SpCas9 [2]; multiple genomic loci): inhibited the indel activity of SpCas9 at multiple genomic loci
- Inhibition of SpCas9 in CAA (SpCas9 [3]): dose-dependent inhibition
- Cytotoxicity (U2OS.eGFP.PEST cells [4]): without introducing cytotoxicity
